Assays:
Type in all cases: in vivo
[1] = system: Plutella xylostella (Diamond Back Moth); assay: Example B5: Plutella xylostella (diamond back moth), artificial diet, 24-well, eggs; conditions: 192 h, application rate 200 ppm, 8 days after infestation, read-out: effect in at least one of the two categories (mortality or growth inhibition)
Description: Example B5: Plutella xylostella (Diamond Back Moth)
24-well microtiter plates with artificial diet were treated with aqueous test solutions prepared from 10,000 ppm DMSO stock solutions by pipetting. After drying, Plutella eggs were pipetted through a plastic stencil onto a gel blotting paper and the plate was closed with it. The samples were assessed for mortality and growth inhibition in comparison to untreated samples 8 days after infestation. The following compounds gave an effect of at least 80% in at least one of the two categories (mortality or growth inhibition) at an application rate of 200 ppm: […]

[2] = system: Diabrotica Balteata (Corn Root Worm); assay: Example B1: Diabrotica balteata (corn root worm), maize sprouts sprayed, L2 larvae; conditions: 96 h, application rate 200 ppm, 4 days after infestation, read-out: effect in at least one of the two categories (mortality or growth inhibition)
Description: Example B1: Diabrotica Balteata (Corn Root Worm)
Maize sprouts placed onto an agar layer in 24-well microtiter plates were treated with aqueous test solutions prepared from 10,000 ppm DMSO stock solutions by spraying. After drying, the plates were infested with L2 larvae (6 to 10 per well). The samples were assessed for mortality and growth inhibition in comparison to untreated samples 4 days after infestation.
The following compounds gave an effect of at least 80% in at least one of the two categories (mortality or growth inhibition) at an application rate of 200 ppm: […]

[3] = system: Myzus persicae (Green Peach Aphid); assay: Example B13: activity against Myzus persicae (green peach aphid), 96-well sucrose solution; conditions: 120 h, application rate 50 ppm, 5 days after infestation
Text: Example B13: Activity Against Myzus persicae (Green Peach Aphid)
Test compounds prepared from 10,000 ppm DMSO stock solutions were applied by a liquid handling robot into 96-well microtiter plates and mixed with a sucrose solution. Parafilm was stretched over the 96-well microtiter plate and a plastic stencil with 96 holes was placed onto the plate. Aphids were sieved into the wells directly onto the Parafilm. The infested plates were closed with a gel blotting card and a second plastic stencil and then turned upside down. The samples were assessed for mortality 5 days after infestation.

[4] = system: Plutella xylostella (Diamondback Moth); assay: Example B14: activity against Plutella xylostella (diamondback moth), 96-well artificial diet; conditions: 216 h, application rate 500 ppm, 9 days after infestation
Description: Example B14: Activity Against Plutella xylostella (Diamondback Moth)
96-well microtiter plates containing artificial diet were treated with aqueous test solutions, prepared from 10,000 ppm DMSO stock solutions, by a liquid handling robot. After drying, eggs (30 per well) were infested onto a netted lid which was suspended above the diet. The eggs hatch and L1 larvae move down to the diet. The samples were assessed for mortality 9 days after infestation.
The following compounds gave an effect of at least 80% average mortality at an application rate of 500 ppm: […]

[5] = system: Spodoptera littoralis (Egyptian Cotton Leaf Worm); assay: Example B9: Spodoptera littoralis (Egyptian cotton leaf worm), cotton leaf discs sprayed, L1 larvae; conditions: foliar, 72 h, application rate 200 ppm, 3 days after infestation
Description: Example B9: Spodoptera littoralis (Egyptian Cotton Leaf Worm)
Cotton leaf discs were placed onto agar in 24-well microtiter plates and sprayed with aqueous test solutions prepared from 10,000 ppm DMSO stock solutions. After drying the leaf discs were infested with five L1 larvae. The samples were assessed for mortality, anti-feeding effect, and growth inhibition in comparison to untreated samples 3 days after infestation. Control of Spodoptera littoralis by a test sample is given when at least one of the three categories (i.e. mortality, anti-feedant effect, and growth inhibition) is higher than the untreated sample.

SMILES | percent effect (mortality or growth inhibition) at 200 ppm [1] | percent effect (mortality or growth inhibition) at 200 ppm [2] | mortality at 50 ppm [3] | mortality at 500 ppm [4] | percent control (mortality, anti-feedant effect or growth inhibition) at 200 ppm [5]
CC(NC(=O)c1cc(-c2cncc(Cl)c2)cc(C(F)(F)F)c1)c1ncnn1-c1ncccn1 (centres unmarked) [P63, 3-(5-chloro-3-pyridyl)-N-[1-(2-pyrimidin-2-yl-1,2,4-triazol-3-yl)ethyl]-5-(trifluoromethyl)benzamide] | ≥ 80% |  |  |  | 
CC(c1ncnn1-c1ncccn1)N(CC1CC1)C(=O)c1cncc(-c2cccc(C(F)(F)F)c2)c1 (centres unmarked) [P8, N-(cyclopropylmethyl)-N-[1-(2-pyrimidin-2-yl-1,2,4-triazol-3-yl)ethyl]-5-[3-(trifluoromethyl)phenyl]pyridine-3-carboxamide] | ≥ 80% |  |  |  | 
CC(c1ncnn1-c1ncccn1)N(CC1CC1)C(=O)c1cc(C(F)(F)F)cc(C(C)(C)C#N)n1 (centres unmarked) [P31, 6-(1-cyano-1-methyl-ethyl)-N-(cyclopropylmethyl)-N-[1-(2-pyrimidin-2-yl-1,2,4-triazol-3-yl)ethyl]-4-(trifluoromethyl)pyridine-2-carboxamide] | ≥ 80% | ≥ 80% | ≥ 80% | ≥ 80% | 
CC(c1ncnn1-c1ncccn1)N(CC1CC1)C(=O)c1cc(Cl)cc(C(C)(C)C#N)n1 (centres unmarked) [P28, 4-chloro-6-(1-cyano-1-methyl-ethyl)-N-(cyclopropylmethyl)-N-[1-(2-pyrimidin-2-yl-1,2,4-triazol-3-yl)ethyl]pyridine-2-carboxamide] |  |  |  | ≥ 80% | 
CC(c1ncnn1-c1ncccn1)N(CC1CC1)C(=O)c1ccc(Oc2ccc(C(F)(F)F)cc2)cc1 (centres unmarked) [P16, N-(cyclopropylmethyl)-N-[1-(2-pyrimidin-2-yl-1,2,4-triazol-3-yl)ethyl]-4-[4-(trifluoromethyl)phenoxy]benzamide] |  | ≥ 80% |  |  | 
CC(c1ncnn1-c1ncccn1)N(CC1CC1)C(=O)c1cc(-c2ccc(F)cc2)cc(C(F)(F)F)c1 (centres unmarked) [P36, N-(cyclopropylmethyl)-3-(4-fluorophenyl)-N-[1-(2-pyrimidin-2-yl-1,2,4-triazol-3-yl)ethyl]-5-(trifluoromethyl)benzamide] | ≥ 80% |  |  | ≥ 80% | ≥ 80%
CC(c1ncnn1-c1ncccn1)N(CC1CC1)C(=O)c1ccc(-n2ccccc2=O)cc1 (centres unmarked) [P18, N-(cyclopropylmethyl)-4-(2-oxo-1-pyridyl)-N-[1-(2-pyrimidin-2-yl-1,2,4-triazol-3-yl)ethyl]benzamide] |  |  | ≥ 80% |  | 
CC(c1ncnn1-c1ncccn1)N(CC1CC1)C(=O)c1cc(N2CC(F)(F)C2)cc(C(F)(F)F)c1 (centres unmarked) [P20, N-(cyclopropylmethyl)-3-(3,3-difluoroazetidin-1-yl)-N-[1-(2-pyrimidin-2-yl-1,2,4-triazol-3-yl)ethyl]-5-(trifluoromethyl)benzamide] |  |  | ≥ 80% | ≥ 80% | 
CC(c1ncnn1-c1ncccn1)N(CC1CC1)C(=O)c1cccc(-c2ccc(C(F)(F)F)cc2)c1 (centres unmarked) [P3, N-(cyclopropylmethyl)-N-[1-(2-pyrimidin-2-yl-1,2,4-triazol-3-yl)ethyl]-3-[4-(trifluoromethyl)phenyl)benzamide] | ≥ 80% |  |  | ≥ 80% | 
CC(c1ncnn1-c1ncccn1)N(CC1CC1)C(=O)c1ccc(C2(C#N)CC2)cc1 (centres unmarked) [P2, 4-(1-cyanocyclopropyl)-N-(cyclopropylmethyl)-N-[1-(2-pyrimidin-2-yl-1,2,4-triazol-3-yl)ethyl]benzamide] |  |  |  | ≥ 80% | 
CC(c1ncnn1-c1ncccn1)N(CC1CC1)C(=O)c1cc(C(F)(F)F)cc(C(F)(F)C2CCC2)c1 (centres unmarked) [P71, 3-[cyclobutyl(difluoro)methyl]-N-(cyclopropylmethyl)-N-[1-(2-pyrimidin-2-yl-1,2,4-triazol-3-yl)ethyl]-5-(trifluoromethyl)benzamide] |  |  |  | ≥ 80% | 
CC(c1ncnn1-c1ncccn1)N(CC1CC1)C(=O)c1ccc(-n2ccc(C(F)(F)F)n2)cc1 (centres unmarked) [P1, N-(cyclopropylmethyl)-N-[1-(2-pyrimidin-2-yl-1,2,4-triazol-3-yl)ethyl]-4-[3-(trifluoromethyl)pyrazol-1-yl]benzamide] |  |  |  | ≥ 80% | 
CC(c1ncnn1-c1ncccn1)N(CC1CC1)C(=O)c1cccc(-c2cccc(C(F)(F)F)c2)n1 (centres unmarked) [P15, N-(cyclopropylmethyl)-N-[1-(2-pyrimidin-2-yl-1,2,4-triazol-3-yl)ethyl]-6-[3-(trifluoromethyl)phenyl]pyridine-2-carboxamide] | ≥ 80% |  | ≥ 80% | ≥ 80% | 
CC(NC(=O)c1cc(-n2ccc(Cl)n2)nc(C(F)(F)F)c1)c1ncnn1-c1ncccn1 (centres unmarked) [P70, 2-(3-chloropyrazol-1-yl)-N-[1-(2-pyrimidin-2-yl-1,2,4-triazol-3-yl)ethyl]-6-(trifluoromethyl)pyridine-4-carboxamide] | ≥ 80% |  |  | ≥ 80% | ≥ 80%
CC(c1ncnn1-c1ncccn1)N(CC1CC1)C(=O)c1cccc(-c2ccc(F)cc2)c1 (centres unmarked) [P4, N-(cyclopropylmethyl)-3-(4-fluorophenyl)-N-[1-(2-pyrimidin-2-yl-1,2,4-triazol-3-yl)ethyl]benzamide] |  |  |  | ≥ 80% | 
CC(c1ncnn1-c1ncccn1)N(CC1CC1)C(=O)c1cc(C(F)(F)F)cc(C2(C)CC2)c1 (centres unmarked) [P38, N-(cyclopropylmethyl)-3-(1-methylcyclopropyl)-N-[1-(2-pyrimidin-2-yl-1,2,4-triazol-3-yl)ethyl]-5-(trifluoromethyl)benzamide] | ≥ 80% |  |  | ≥ 80% | 
CC(c1ncnn1-c1ncccn1)N(CC1CC1)C(=O)c1cc(OCC2CC2)cc(C(F)(F)F)c1 (centres unmarked) [P47, 3-(cyclopropylmethoxy)-N-(cyclopropylmethyl)-N-[1-(2-pyrimidin-2-yl-1,2,4-triazol-3-yl)ethyl]-5-(trifluoromethyl)benzamide] | ≥ 80% |  | ≥ 80% | ≥ 80% | 
CC(c1ncnn1-c1ncccn1)N(CC1CC1)C(=O)c1cnc(C2CC2)nc1 (centres unmarked) [P11, 2-cyclopropyl-N-(cyclopropylmethyl)-N-[1-(2-pyrimidin-2-yl-1,2,4-triazol-3-yl)ethyl]pyrimidine-5-carboxamide] |  |  | ≥ 80% |  | 
CC(c1ncnn1-c1ncccn1)N(CC1CC1)C(=O)c1cc(OC2CCC2)cc(C(F)(F)F)c1 (centres unmarked) [P48, 3-(cyclobutoxy)-N-(cyclopropylmethyl)-N-[1-(2-pyrimidin-2-yl-1,2,4-triazol-3-yl)ethyl]-5-(trifluoromethyl)benzamide] |  |  |  | ≥ 80% | 
CC(NC(=O)c1cc(OC(C)(C)C#N)cc(C(F)(F)F)c1)c1ncnn1-c1ncccn1 (centres unmarked) [P56, 3-(1-cyano-1-methyl-ethoxy)-N-[1-(2-pyrimidin-2-yl-1,2,4-triazol-3-yl)ethyl]-5-(trifluoromethyl)benzamide] | ≥ 80% | ≥ 80% |  |  | ≥ 80%
CC(c1ncnn1-c1ncccn1)N(CC1CC1)C(=O)c1ccc(N2CCCCC2=O)cc1 (centres unmarked) [P17, N-(cyclopropylmethyl)-4-(2-oxo-1-piperidyl)-N-[1-(2-pyrimidin-2-yl-1,2,4-triazol-3-yl)ethyl]benzamide] |  |  | ≥ 80% |  | 
CC(c1ncnn1-c1ncccn1)N(CC1CC1)C(=O)c1ccc(-c2ccc(F)cc2)cc1 (centres unmarked) [P5, N-(cyclopropylmethyl)-4-(4-fluorophenyl)-N-[1-(2-pyrimidin-2-yl-1,2,4-triazol-3-yl)ethyl]benzamide] | ≥ 80% |  |  | ≥ 80% | 
CC(c1ncnn1-c1ncccn1)N(CC1CC1)C(=O)c1cc(-c2cccc(C(F)(F)F)c2)ccn1 (centres unmarked) [P9, N-(cyclopropylmethyl)-N-[1-(2-pyrimidin-2-yl-1,2,4-triazol-3-yl)ethyl]-4-[3-(trifluoromethyl)phenyl]pyridine-2-carboxamide] | ≥ 80% |  |  | ≥ 80% | 
